{"source": "paper PMC8472830", "about": "“Inclusion of Medium-Chain Triglyceride in Lipid-Based Formulation of Cannabidiol Facilitates Micellar Solubilization In Vitro, but In Vivo Performance Remains Superior with Pure Sesame Oil Vehicle” (Pharmaceutics, 2021)", "origin": "cited, not measured here", "key": {"[1]": {"parameters": "method as in PMID 12412831", "settings": "pH 7.4"}, "[2]": {"parameters": "method as in PMID 32634571", "settings": "healthy male volunteers"}, "[3]": {"parameters": "method as in PMID 29109461, PMID 27648135", "settings": "rats, oral, natural sesame oil vehicle"}}}
{"smiles": "C=C(C)[C@@H]1CCC(C)=C[C@H]1c1c(O)cc(CCCCC)cc1O", "note": "[CBD, Cannabidiol]", "values": [{"measurement": "clogD7.4", "setting": "[1]", "value": 6.53}, {"measurement": "Increase of CBD oral absorption in sesame oil compared to CBD powder", "setting": "[2]", "value": "eight-fold"}, {"measurement": "Drug concentration in lymph fluid compared to plasma", "setting": "[3]", "value": 250, "unit": "fold"}, {"measurement": "Increase of systemic bioavailability of CBD compared to the lipid-free vehicle", "setting": "[3]", "value": 2.8, "unit": "fold"}]}
